Test results: ChEMBL document CHEMBL1132856, “Antitumour activity of sphingoid base adducts of phenethyl isothiocyanate” (2000)

Legend:
Leukemia 60 cell line [1] = assay: Median growth inhibitory concentration of compound tested in vitro against human leukemia 60 cells; assay type: functional
Leukemia 60 cell line [2] = assay: Median toxic concentration of compound tested in vitro against human leukemia 60 cells; assay type: functional; conditions: read-out: TC50 (the source's name)

Row | SMILES | GC50 (Leukemia 60 cell line [1]) | CC50 (Leukemia 60 cell line [2])
1 | CCCCCCCCCCCCCCCC(O)C(CO)/N=C(\S)NCCc1ccccc1 (stereo not given) | 1600 nM | 2370 nM
2 | CCCCCCCCCCCCC/C=C\C(O)C(CO)/N=C(\S)NCCc1ccccc1 (stereo not given) | 640 nM | 2530 nM
3 | CCCCCCCCCCCCCCC[C@@H](O)[C@@H](N)CO [DIHYDROSPINGOSINE] | 490 nM | 2550 nM
4 | S=C=NCCc1ccccc1 [PHENETHYLISOTHIOCYANATE] | 840 nM | 1370 nM
5 | CCCCCCCCCCCCCC=C[C@@H](O)[C@@H](N)CO [SPHINGOSINE] | 1240 nM | 2420 nM
